Experimental data from ChEMBL document CHEMBL1201862, “PubChem BioAssay data set” (2004).
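How tested: cells in 96-well plates exposed to compound for 48 hours at five concentrations. GI50 is the concentration that inhibits growth by half.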 Calls of active or inactive are those of the source. Cut-off read from the data, not from the text of the source: active = GI50 up to about 1.1 µM and inactive = higher.

Experiments:
Experiment in all cases: NCI anticancer screen, dose series, 48 h
SNB-78 = system: SNB-78
DMS-114 = system: DMS-114
HOP-18 = system: HOP-18
LXFL 529 = system: LXFL 529
M19-MEL = system: M19-MEL
RXF 631 = system: RXF 631
KM-20L2 = system: KM-20L2
MDA-N = system: MDA-N
XF498 = system: XF498

SMILES	GI50 (LXFL 529)	GI50 (M19-MEL)	GI50 (MDA-N)	further results
Oc1nc(S)nc2c1CCCN2	> 100 µM (inactive)	> 100 µM (inactive)	–	GI50 (SNB-78): > 100 µM (inactive); GI50 (DMS-114): > 100 µM (inactive); GI50 (HOP-18): > 100 µM (inactive); GI50 (RXF 631): > 100 µM (inactive)
CC(=O)/C=C/c1ccc(C)cc1	> 100 µM (inactive)	> 100 µM (inactive)	–	GI50 (SNB-78): > 100 µM (inactive); GI50 (DMS-114): > 100 µM (inactive); GI50 (KM-20L2): > 100 µM (inactive); GI50 (HOP-18): > 100 µM (inactive)
CCOC(=O)C1(Cc2ccccc2)Cc2cc3c(cc2C1)CCC3	–	–	31.1 µM (inactive)	–
CC(=O)Nc1ccc(C(=O)NN2C(=O)C(Cl)C2c2ccc(Cl)cc2)cc1 (stereo not drawn)	50.6 µM (inactive)	> 100 µM (inactive)	–	GI50 (HOP-18): 64.4 µM (inactive)
C=C(C)C1CC[C@]2(C(=O)O)CCC3(C)[C@H](CCC4[C@@]5(C)CC[C@H](OC6OC(CO)C(O)C6OC6OC(C)C(O)C(O)C6O)[C@@](C)(CO)C5CC[C@]43C)C12 (stereo partly drawn)	> 100 µM (inactive)	> 100 µM (inactive)	–	GI50 (SNB-78): > 100 µM (inactive); GI50 (DMS-114): > 100 µM (inactive); GI50 (KM-20L2): > 100 µM (inactive); GI50 (XF498): > 100 µM (inactive); GI50 (RXF 631): > 100 µM (inactive)
C=C(C)C12CC(COC(=O)c3ccccc3)C34OC5(OC1C3C1OC1(CO)C(O)C1(O)C(OC(=O)c3ccccc3)C(C)C(C(C)CCCCCCC5O)C14)O2 (stereo not drawn)	–	–	25.9 µM (inactive)	–
COP(=O)(OC)/C(=C/c1c[nH]c2ccccc12)C(=O)O	–	–	> 100 µM (inactive)	–
CC1=C2O[C@]3(O)C=C2C(=C(O)C1=O)[C@@H]1O[C@H](CC[C@H](C)/C=C(\C)C[C@@H](C)C[C@@H]3C)[C@H](C)[C@H](O)[C@H]1C [KENDOMYCIN]	–	–	0.166 µM (active)	–
C1OCC2S[C@@H]3COCO[C@@H]3C2O1 (stereo partly drawn)	> 100 µM (inactive)	> 100 µM (inactive)	–	GI50 (SNB-78): > 100 µM (inactive); GI50 (DMS-114): > 100 µM (inactive); GI50 (KM-20L2): > 100 µM (inactive); GI50 (XF498): > 100 µM (inactive)
OC1CCN2Cc3ccccc3N=C12 (stereo not drawn)	–	–	> 100 µM (inactive)	–
N#Cc1ccnc(C(=O)N2CCCC2C(=O)O)c1 (stereo not drawn)	–	–	> 100 µM (inactive)	–
O=C(Nc1sccc1S(=O)(=O)c1ccc(Cl)cc1)c1ccc(Cl)cc1	–	–	> 100 µM (inactive)	–
CC(C)=CCC[C@]1(C)C=Cc2c(O)c3c(c(CC=C(C)C)c2O1)O[C@]12C(=C[C@@H]4CC1C(C)(C)O[C@@]2(C/C=C(/C)C(=O)O)C4=O)C3=O	–	–	0.47 µM (active)	–
O=C(c1ccccc1)c1ccc2[nH]c(-c3c(Cl)c(Cl)c(Cl)c(Cl)c3-c3nnc(-c4ccccc4)o3)nc2c1	–	–	3.45 µM (inactive)	–
Nn1c(Cc2ccccc2)n[nH]c1=O	–	–	> 100 µM (inactive)	–
